Laboratory results published in US9718819B2 (Merck Sharp & Dohme Corp., priority 2012, dated 2017).

target: HIV-1 RT wild-type enzyme (Human immunodeficiency virus type 1 group M subtype B (isolate HXB2) (HIV-1), UniProt P04585); experiment: HIV-1 reverse transcriptase inhibitory activity (RT polymerase assay); type: biochemical; conditions: HIV-1 RT wild-type enzyme 83 pM; RNA-dependent DNA polymerase activity; read-out: IC50
Method in brief: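 Biotinylated DNA primer annealed to HCV-derived RNA template (16.6 nM final hybrid), with 2 μM dATP/dGTP/dCTP and 66.6 nM Ru-dUTP, after 30 min compound–enzyme preincubation at room temperature; polymerization 90 min at 37 °C, EDTA quench. Product captured on avidin plates, electrochemiluminescence read; IC50 by four-parameter logistic fit versus DMSO and 1 μM efavirenz controls.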

First: N#Cc1cc(Cl)cc(Oc2c(C(F)(F)F)ncn(Cc3cc(CF)c(=O)[nH]n3)c2=O)c1 [Example 16, 3-chloro-5-((1-((5-(fluoromethyl)-6-oxo-1,6-dihydropyridazin-3-yl)methyl)-6-oxo-4-(trifluoromethyl)-1,6-dihydropyrimidin-5-yl)oxy)benzonitrile]
Second: N#Cc1cc(Cl)cc(Oc2c(C(F)(F)F)ncn(Cc3cc(O)c(=O)[nH]n3)c2=O)c1 [Example 107, 3-chloro-5-((1-((5-hydroxy-6-oxo-1,6-dihydropyridazin-3-yl)methyl)-6-oxo-4-(trifluoromethyl)-1,6-dihydropyrimidin-5-yl)oxy)benzonitrile]
The IC50 of the first is 19-fold lower: 12 nM for the first, 223 nM for the second. The first is the more potent here.

`N#Cc1cc(Cl)cc(Oc2c(C(F)(F)F)ncn(Cc3cc(-c4cn[nH]c4)c(=O)[nH]n3)c2=O)c1` [Example 71, 3-chloro-5-((6-oxo-1-((6-oxo-5-(1H-pyrazol-4-yl)-1,6-dihydropyridazin-3-yl)methyl)-4-(trifluoromethyl)-1,6-dihydropyrimidin-5-yl)oxy)benzonitrile] and `N#Cc1cc(Cl)cc(Oc2c(C(F)(F)F)ncn(Cc3cc(-c4cc(F)cc(F)c4)c(=O)[nH]n3)c2=O)c1` [Example 33, 3-chloro-5-((1-((5-(3,5-difluorophenyl)-6-oxo-1,6-dihydropyridazin-3-yl)methyl)-6-oxo-4-(trifluoromethyl)-1,6-dihydropyrimidin-5-yl)oxy)benzonitrile] are within 1.5-fold of each other in IC50: 5 nM for the first, 7 nM for the second.

`CC(F)(F)c1cc(Cn2cnc(C(F)(F)F)c(Oc3cccc(C#N)c3F)c2=O)c(=O)[nH]n1` [Example 178, 3-((1-((6-(1,1-difluoroethyl)-3-oxo-2,3-dihydropyridazin-4-yl)methyl)-6-oxo-4-(trifluoromethyl)-1,6-dihydropyrimidin-5-yl)oxy)-2-fluorobenzonitrile] and `CC(F)(F)c1cc(Cn2cnc(C(C)(F)F)c(Oc3cccc(C#N)c3F)c2=O)c(=O)[nH]n1` [Example 182, 3-((4-(1,1-difluoroethyl)-1-((6-(1,1-difluoroethyl)-3-oxo-2,3-dihydropyridazin-4-yl)methyl)-6-oxo-1,6-dihydropyrimidin-5-yl)oxy)-2-fluorobenzonitrile] are the same in IC50: 9 nM for the first, 9 nM for the second.

`N#Cc1cc(Cl)cc(Oc2c(C(F)(F)F)ncn(Cc3cc(-c4ccc(F)c(F)c4)n[nH]c3=O)c2=O)c1` [Example 121, 3-chloro-5-((1-((6-(3,4-difluorophenyl)-3-oxo-2,3-dihydropyridazin-4-yl)methyl)-6-oxo-4-(trifluoromethyl)-1,6-dihydropyrimidin-5-yl)oxy)benzonitrile] and `N#Cc1cc(Cl)cc(Oc2c(C(F)(F)F)ncn(Cc3cc(-c4cccc(F)c4)n[nH]c3=O)c2=O)c1` [Example 113, 3-chloro-5-((1-((6-(3-fluorophenyl)-3-oxo-2,3-dihydropyridazin-4-yl)methyl)-6-oxo-4-(trifluoromethyl)-1,6-dihydropyrimidin-5-yl)oxy)benzonitrile] are within 1.5-fold of each other in IC50: 5 nM for the first, 6 nM for the second.

First: N#Cc1cc(Cl)cc(Oc2c(C(F)(F)F)ncn(Cc3ccn[nH]c3=O)c2=O)c1 [Example 5, 3-chloro-5-((6-oxo-1-((3-oxo-2,3-dihydropyridazin-4-yl)methyl)-4-(trifluoromethyl)-1,6-dihydropyrimidin-5-yl)oxy)benzonitrile]
Second: CNc1ncc(Cn2cnc(C(F)(F)F)c(Oc3cc(Cl)cc(C#N)c3)c2=O)c(=O)[nH]1 [Example 137, 3-chloro-5-((1-((2-(methylamino)-6-oxo-1,6-dihydropyrimidin-5-yl)methyl)-6-oxo-4-(trifluoromethyl)-1,6-dihydropyrimidin-5-yl)oxy)benzonitrile]
The IC50 of the first is 1.5-fold lower: 6 nM for the first, 9 nM for the second.

Compared with `N#Cc1cc(Cl)cc(Oc2c(C(F)(F)F)ncn(Cc3cnc(-c4ccc(OC(F)(F)F)cc4)[nH]c3=O)c2=O)c1` [Example 153, 3-chloro-5-((6-oxo-1-((6-oxo-2-(4-(trifluoromethoxy)phenyl)-1,6-dihydropyrimidin-5-yl)methyl)-4-(trifluoromethyl)-1,6-dihydropyrimidin-5-yl)oxy)benzonitrile], `N#Cc1cc(Cl)cc(Oc2c(C(F)(F)F)ncn(Cc3cnc(-c4ccc(OC(F)F)cc4)[nH]c3=O)c2=O)c1` [Example 159, 3-chloro-5-((1-((2-(4-(difluoromethoxy)phenyl)-6-oxo-1,6-dihydropyrimidin-5-yl)methyl)-6-oxo-4-(trifluoromethyl)-1,6-dihydropyrimidin-5-yl)oxy)benzonitrile] is 1.9-fold lower in IC50: 33 nM for the first, 17 nM for the second. The second is the more potent here.

Compared with `N#Cc1cc(Oc2c(C(F)(F)F)ncn(Cc3cc(-c4ccc(F)cc4)c(=O)[nH]n3)c2=O)cc(OC(F)F)c1` [Example 167, 3-(difluoromethoxy)-5-((1-((5-(4-fluorophenyl)-6-oxo-1,6-dihydropyridazin-3-yl)methyl)-6-oxo-4-(trifluoromethyl)-1,6-dihydropyrimidin-5-yl)oxy)benzonitrile], `Cc1cc(F)ccc1-c1cc(Cn2cnc(C(F)(F)F)c(Oc3cc(Cl)cc(C#N)c3)c2=O)n[nH]c1=O` [Example 56, 3-chloro-5-((1-((5-(4-fluoro-2-methylphenyl)-6-oxo-1,6-dihydropyridazin-3-yl)methyl)-6-oxo-4-(trifluoromethyl)-1,6-dihydropyrimidin-5-yl)oxy)benzonitrile] is 13-fold higher in IC50: 6 nM for the first, 76 nM for the second. The first is the more potent here.

Compared with `N#Cc1cc(Cl)cc(Oc2c(C(F)(F)F)ncn(Cc3cc(C(O)C(F)(F)F)c(=O)[nH]n3)c2=O)c1` (stereo not drawn) [Example 103, 3-chloro-5-((6-oxo-1-((6-oxo-5-(2,2,2-trifluoro-1-hydroxyethyl)-1,6-dihydropyridazin-3-yl)methyl)-4-(trifluoromethyl)-1,6-dihydropyrimidin-5-yl)oxy)benzonitrile], `N#Cc1cc(Cl)cc(Oc2c(C(F)(F)F)ncn(Cc3cc(C(F)F)c(=O)[nH]n3)c2=O)c1` [Example 102, 3-chloro-5-((1-((5-(difluoromethyl)-6-oxo-1,6-dihydropyridazin-3-yl)methyl)-6-oxo-4-(trifluoromethyl)-1,6-dihydropyrimidin-5-yl)oxy)benzonitrile] is 3.7-fold lower in IC50: 74 nM for the first, 20 nM for the second. The second is the more potent here.

Compared with `N#Cc1cc(Cl)cc(Oc2c(C(F)(F)F)ncn(Cc3cc(-n4ccnn4)c(=O)[nH]n3)c2=O)c1` [Example 94, 3-chloro-5-((6-oxo-1-((6-oxo-5-(1H-1,2,3-triazol-1-yl)-1,6-dihydropyridazin-3-yl)methyl)-4-(trifluoromethyl)-1,6-dihydropyrimidin-5-yl)oxy)benzonitrile], `N#Cc1cc(Cl)cc(Oc2c(C(F)(F)F)ncn(Cc3cc(-c4cccnc4F)c(=O)[nH]n3)c2=O)c1` [Example 87, 3-chloro-5-((1-((5-(2-fluoropyridin-3-yl)-6-oxo-1,6-dihydropyridazin-3-yl)methyl)-6-oxo-4-(trifluoromethyl)-1,6-dihydropyrimidin-5-yl)oxy)benzonitrile] is 2.7-fold lower in IC50: 48 nM for the first, 18 nM for the second. The second is the more potent here.

First: COc1cccc(-c2cc(Cn3cnc(C(F)(F)F)c(Oc4cc(Cl)cc(C#N)c4)c3=O)n[nH]c2=O)c1F [Example 44, 3-chloro-5-((1-((5-(2-fluoro-3-methoxyphenyl)-6-oxo-1,6-dihydropyridazin-3-yl)methyl)-6-oxo-4-(trifluoromethyl)-1,6-dihydropyrimidin-5-yl)oxy)benzonitrile]
Second: N#Cc1cc(Cl)cc(Oc2c(C(F)(F)F)ncn(Cc3cc(-c4cccc(Cl)c4F)c(=O)[nH]n3)c2=O)c1 [Example 43, 3-chloro-5-((1-((5-(3-chloro-2-fluorophenyl)-6-oxo-1,6-dihydropyridazin-3-yl)methyl)-6-oxo-4-(trifluoromethyl)-1,6-dihydropyrimidin-5-yl)oxy)benzonitrile]
The IC50 of the first is 2.2-fold lower: 4 nM for the first, 9 nM for the second.

Compared with `COc1ccc(F)c(-c2cc(Cn3cnc(C(F)(F)F)c(Oc4cc(Cl)cc(C#N)c4)c3=O)n[nH]c2=O)c1` [Example 63, 3-chloro-5-((1-((5-(2-fluoro-5-methoxyphenyl)-6-oxo-1,6-dihydropyridazin-3-yl)methyl)-6-oxo-4-(trifluoromethyl)-1,6-dihydropyrimidin-5-yl)oxy)benzonitrile], `N#Cc1cc(Cl)cc(Oc2c(C(F)(F)F)ncn(Cc3cc(-c4ccnc5[nH]ccc45)n[nH]c3=O)c2=O)c1` [Example 126, 3-chloro-5-((6-oxo-1-((3-oxo-6-(1H-pyrrolo[2,3-b]pyridin-4-yl)-2,3-dihydropyridazin-4-yl)methyl)-4-(trifluoromethyl)-1,6-dihydropyrimidin-5-yl)oxy)benzonitrile] is 2.5-fold lower in IC50: 10 nM for the first, 4 nM for the second.

Going from `N#Cc1cc(Cl)cc(Oc2c(C(F)(F)F)ncn(Cc3cnc(C(F)F)[nH]c3=O)c2=O)c1` [Example 157, 3-chloro-5-((1-((2-(difluoromethyl)-6-oxo-1,6-dihydropyrimidin-5-yl)methyl)-6-oxo-4-(trifluoromethyl)-1,6-dihydropyrimidin-5-yl)oxy)benzonitrile] to `N#Cc1cc(Cl)cc(Oc2c(C(F)(F)F)ncn(Cc3cnc(C(F)(F)F)[nH]c3=O)c2=O)c1` [Example 131, 3-Chloro-5-[16-oxo-1-(6-oxo-2-trifluoromethyl-1,6-dihydro-pyrimidin-5-ylmethyl)-4-trifluoromethyl-1,6-dihydro-pyrimidin-5-yloxy]-benzonitrile], the IC50 rises from 32 nM to 435 nM (14-fold).

Compared with `N#Cc1cc(Cl)cc(Oc2c(C(F)(F)F)ncn(Cc3cnc(-c4cccc(F)c4)[nH]c3=O)c2=O)c1` [Example 150, 3-chloro-5-((1-((2-(3-fluorophenyl)-6-oxo-1,6-dihydropyrimidin-5-yl)methyl)-6-oxo-4-(trifluoromethyl)-1,6-dihydropyrimidin-5-yl)oxy)benzonitrile], `N#Cc1cc(Cl)cc(Oc2c(C(F)(F)F)ncn(Cc3ccc(=O)[nH]n3)c2=O)c1Cl` [Example 18, 2,5-dichloro-3-((6-oxo-1-((6-oxo-1,6-dihydropyridazin-3-yl)methyl)-4-(trifluoromethyl)-1,6-dihydropyrimidin-5-yl)oxy)benzonitrile] is 1.8-fold lower in IC50: 9 nM for the first, 5 nM for the second. The second is the more potent here.

Compound `N#Cc1cccc(Oc2c(C(F)(F)F)ncn(Cc3ccc(=O)[nH]n3)c2=O)c1F` [Example 161, 2-fluoro-3-(6-oxo-1-((6-oxo-1,6-dihydropyridazin-3-yl)methyl)-4-(trifluoromethyl)-1,6-dihydropyrimidin-5-yloxy)benzonitrile] has an IC50 of 24 nM.
